Reference: patent US20160177395A1, “BIOMARKERS FOR THE PREDICTION OF RENAL INJURY” (priority 2007, published 2016)
Several values for one entry are separate records, joined by “and”; a condition that tells them apart may be missing. Identical values can stand only once. Entries after “also recorded” stand apart in the source; their conditions may differ.

Legend:
[1] = system: Sprague-Dawley Crl:CD(SD) rats; assay: Rat toxicity study, single, 5-day and 28-day treatment (clinical observation, clinical pathology, autopsy, organ weights, histopathology); details: for Organ weight: compared with controls;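 for all read-outs here: control rats received saline intraperitoneally, and the organs examined were adrenals, brain, kidneys, liver, spleen and thymus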
Experimental: Control animals were treated intraperitoneal with saline.
Randomization and group allocation: prior to treatment, the animals were assigned to the experimental groups based on their body weight. Mean body weight of each group at randomization was not deviate±20% of the mean population weight. Males and females were randomized separately. For the randomization, a computer program was used.
The day before autopsy, urinalysis was performed and blood samples were taken for hematology and clinical chemistry examinations.
On the day of autopsy the animals were anaesthetized with isoflurane, blood was collected for PBMC isolation then subjected to autopsy. Tissues and organs (adrenals, brain, kidneys, liver, spleen and thymus) were weighed and subjected to gross pathological and histopathological examinations.

[2] = system: kidney tissues of treated or untreated rats; assay: Real-time qRT-PCR of marker transcripts in kidney tissue panel, discovery stage (Table 22); format: in vivo, rat; design: AI502869_DB71_seg0 normalized Real Time PCR expression: unit not given beside the values; details: for normalized Real Time PCR MMU09507_DB81_seg15 / normalized Real Time PCR MUSCYCG1R_DB81_seg19-20 / normalized Real Time PCR RATRAB13X_DB81_seg15-17 / normalized Real Time PCR RATRAB13X_DB81_seg22 / normalized Real Time PCR W33294_DB81_seg23 / normalized Real Time PCR W33294_DB81_seg44: kidney; for normalized Real Time PCR MUSCYCG1R DB81 seg19-20: test concentration or dose not given here; for normalized Real Time PCR RATRAB13X DB81 seg15-17: test concentration or dose not given here; for normalized Real Time PCR RATRAB13X DB81 seg22: test concentration or dose not given here; for normalized Real Time PCR W33294 DB81 seg23: test concentration or dose not given here; for normalized Real Time PCR W33294 DB81 seg44: test concentration or dose not given here
In short: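 Rat kidney RNA, DNase-treated until PCR-negative, reverse transcribed with SuperscriptII; SYBR Green real-time PCR, 40 cycles, undetected samples set to Ct 41. Relative quantity from efficiency^-Ct (standard-curve efficiency), normalized to the geometric mean of four median-scaled housekeeping genes, then multiplied by a constant factor.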

[3] = 28-day treatment, male and female rats
[4] = female rats, day5, listed as Gent
[5] = rat kidney, day1, individual animals

## Gentamycin
[1]; 5-day treatment
  Autopsy findings: No effect
  Body weight gain: Body weight gain was decreased in females
  Clinical pathology: elevated urea nitrogen levels found in females; also recorded: ♀: ↑↑BUN
  Histopathology / renal damage: No nephrotoxicity was observed; also recorded: No renal damage was found at histopathological examination
  Organ weight: No effect
[1]; 28-day treatment
  Body weight and body weight gain: affected body weight gain of animals in both sexes; also recorded: Effect on body weight and body weight gain was seen
  Histopathology / nephrotoxicity: Signs of nephrotoxicity occurred in all animals of both sexes; also recorded: nephrotoxic effect of the test item was confirmed by histopathology; also recorded: basophilia in the cortex
[1]; 28-day treatment, females
  Decreasing order of nephrotoxicity at histopathological examination: Cisplatin, Cadmium chloride, Gentamycin, Doxorubicin and Tobramycin in females
[1]; [3]
  Autopsy findings: enlarged and discolored kidneys were observed in males; also recorded: Alterations were found in the kidneys; also recorded: ♂♀: ↑↑, pale
  Organ weight: Kidney weight increased in both sexes and Increased weights of kidneys in males and Higher weights of kidneys in females and Weights of spleen were higher in Gentamycin treated males and Decreased thymus weights were found in Gentamycin and Tobramycin treated males and ↑↑
[1]; 28-day treatment, males
  Decreasing order of nephrotoxicity at histopathological examination: Cisplatin, Gentamycin, Tobramycin and Doxorubicin in males
[2]; female rats, day1
  normalized Real Time PCR MMU09507_DB81_seg15: 0.41 and 0.43 and 0.23
  normalized Real Time PCR MUSCYCG1R_DB81_seg19-20: 0.67 and 0.55 and 0.44
  normalized Real Time PCR RATRAB13X_DB81_seg15-17: 0.9 and 0.63 and 0.55
  normalized Real Time PCR RATRAB13X_DB81_seg22: 0.98 and 0.71 and 0.51
  normalized Real Time PCR W33294_DB81_seg23: 1 and 0.51 and 0.94
  normalized Real Time PCR W33294_DB81_seg44: 1.02 and 0.8 and 0.77
[2]; female rats, day5
  normalized Real Time PCR MUSCYCG1R_DB81_seg19-20: 1.41
[2]; [4]
  normalized Real Time PCR MMU09507_DB81_seg15: 0.78 and 0.62 and 1.13
  normalized Real Time PCR MUSCYCG1R_DB81_seg19-20: 1.23 and 1.42
  normalized Real Time PCR RATRAB13X_DB81_seg15-17: 1.68 and 1.5 and 1.59
  normalized Real Time PCR RATRAB13X_DB81_seg22: 2.16 and 2.11 and 1.91
  normalized Real Time PCR W33294_DB81_seg23: 1.64 and 1.96 and 1.51
  normalized Real Time PCR W33294_DB81_seg44: 1.64 and 1.72 and 2.13
[2]; female rats, day28
  normalized Real Time PCR MMU09507_DB81_seg15: 1.38 and 0.96 and 0.7
  normalized Real Time PCR MUSCYCG1R_DB81_seg19-20: 0.56 and 0.74 and 0.42
  normalized Real Time PCR RATRAB13X_DB81_seg15-17: 0.84 and 0.9 and 0.88
  normalized Real Time PCR RATRAB13X_DB81_seg22: 0.68 and 0.56 and 0.57
  normalized Real Time PCR W33294_DB81_seg44: 0.66 and 0.71
[2]; male rats, day1
  normalized Real Time PCR MMU09507_DB81_seg15: 0.56 and 0.32 and 0.37
  normalized Real Time PCR RATRAB13X_DB81_seg22: 0.8 and 0.99 and 0.6
  normalized Real Time PCR W33294_DB81_seg23: 0.57 and 0.74 and 0.61
  normalized Real Time PCR W33294_DB81_seg44: 0.77 and 0.5 and 0.64
[2]; male rats, day5
  normalized Real Time PCR MMU09507_DB81_seg15: 0.71 and 0.41 and 0.68
  normalized Real Time PCR MUSCYCG1R_DB81_seg19-20: 1.43 and 1
  normalized Real Time PCR RATRAB13X_DB81_seg15-17: 1.25 and 0.76 and 1.35
  normalized Real Time PCR RATRAB13X_DB81_seg22: 1.25 and 0.77 and 1.16
  normalized Real Time PCR W33294_DB81_seg23: 1.25 and 0.82 and 0.95
  normalized Real Time PCR W33294_DB81_seg44: 1.12 and 0.93 and 0.94
[2]; male rats, day28
  normalized Real Time PCR MMU09507_DB81_seg15: 0.82 and 0.59 and 0.84
  normalized Real Time PCR MUSCYCG1R_DB81_seg19-20: 0.79 and 0.4 and 0.55
  normalized Real Time PCR RATRAB13X_DB81_seg15-17: 0.77 and 0.76 and 1.22
  normalized Real Time PCR RATRAB13X_DB81_seg22: 0.91 and 0.88 and 0.58
  normalized Real Time PCR W33294_DB81_seg23: 0.57 and 0.8 and 0.67
[2]; [5]
  AA686189_DB71_seg6 normalized Real Time PCR expression: 1.19 and 0.65 and 1.07 and 0.94 and 1.04 and 0.6
  AA799594_DB71_seg0 normalized Real Time PCR expression: 1.25 and 0.72 and 0.93 and 0.57 and 0.95 and 0.92
  AA964541_DB71_seg0 normalized Real Time PCR expression: 1.35 and 0.74 and 1.29 and 0.9 and 1.19 and 0.44
  AI045075_DB71_seg6 normalized Real Time PCR expression: 1.5 and 0.93 and 0 and 1.07 and 1.03 and 0.78
  AI454051_DB71_seg0 normalized Real Time PCR expression: 0.9 and 0.75 and 0.57 and 0.4 and 0.54 and 0.79
  AI502869_DB71_seg0 normalized Real Time PCR expression: 0.83 and 0.61 and 0.53 and 1.53 and 0.99 and 0.76
